# Legend:
# [1] = target: T1, 5-HT2C receptors (Homo sapiens, UniProt P28335); assay: affinity for 5-HT2C receptors; format: binding
# T1 sequence (P28335 33-458): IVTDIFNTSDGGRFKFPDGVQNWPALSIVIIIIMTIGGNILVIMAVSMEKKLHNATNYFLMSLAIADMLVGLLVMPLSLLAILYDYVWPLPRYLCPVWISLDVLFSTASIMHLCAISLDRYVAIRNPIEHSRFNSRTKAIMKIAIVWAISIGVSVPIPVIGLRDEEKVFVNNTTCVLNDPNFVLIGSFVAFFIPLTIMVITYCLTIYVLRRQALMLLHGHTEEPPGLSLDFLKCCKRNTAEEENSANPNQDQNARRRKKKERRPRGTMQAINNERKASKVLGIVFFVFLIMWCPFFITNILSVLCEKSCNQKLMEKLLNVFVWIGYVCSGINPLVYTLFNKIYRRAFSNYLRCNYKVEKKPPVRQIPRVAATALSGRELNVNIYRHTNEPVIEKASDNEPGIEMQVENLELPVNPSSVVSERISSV
# From the text: (§1) M1 refers to N-(4-(2-(2-hydroxyethylamino)ethoxy)-3-(1-methyl-1H-pyrazol-5-yl)phenyl)-3-methoxybenzamide. M2 refers to N-(4-(2-aminoethoxy)-3-(1-methyl-1H-pyrazol-5-yl)phenyl)-3-methoxybenzamide. Compound 1, or a pharmaceutically acceptable salt, hydrate, or solvate thereof, inhibits serotonin-mediated vasoconstriction and inhibits serotonin-mediated amplification of platelet aggregation.
# [2] = target: human 5-HT2A (Homo sapiens, UniProt P28223); assay: affinity for human 5-HT2A; format: binding
# Chain of human 5-HT2A (P28223 whole entry): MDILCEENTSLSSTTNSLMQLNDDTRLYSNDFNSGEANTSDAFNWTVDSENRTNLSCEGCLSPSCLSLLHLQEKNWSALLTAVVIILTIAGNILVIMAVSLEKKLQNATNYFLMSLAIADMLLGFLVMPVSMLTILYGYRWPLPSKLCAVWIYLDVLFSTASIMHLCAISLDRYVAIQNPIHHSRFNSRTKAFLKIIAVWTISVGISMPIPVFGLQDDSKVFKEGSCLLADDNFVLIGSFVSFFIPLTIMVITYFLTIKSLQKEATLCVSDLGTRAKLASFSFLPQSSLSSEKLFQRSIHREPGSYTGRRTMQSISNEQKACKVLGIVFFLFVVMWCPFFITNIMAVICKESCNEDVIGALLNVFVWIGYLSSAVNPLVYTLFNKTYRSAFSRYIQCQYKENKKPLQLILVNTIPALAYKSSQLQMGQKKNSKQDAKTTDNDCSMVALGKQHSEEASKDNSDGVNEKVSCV
# From the text: as §1
# [3] = target: 5-HT2B receptors (Homo sapiens, UniProt P41595); assay: affinity for 5-HT2B receptors; format: binding
# Chain of 5-HT2B receptors (P41595 whole entry): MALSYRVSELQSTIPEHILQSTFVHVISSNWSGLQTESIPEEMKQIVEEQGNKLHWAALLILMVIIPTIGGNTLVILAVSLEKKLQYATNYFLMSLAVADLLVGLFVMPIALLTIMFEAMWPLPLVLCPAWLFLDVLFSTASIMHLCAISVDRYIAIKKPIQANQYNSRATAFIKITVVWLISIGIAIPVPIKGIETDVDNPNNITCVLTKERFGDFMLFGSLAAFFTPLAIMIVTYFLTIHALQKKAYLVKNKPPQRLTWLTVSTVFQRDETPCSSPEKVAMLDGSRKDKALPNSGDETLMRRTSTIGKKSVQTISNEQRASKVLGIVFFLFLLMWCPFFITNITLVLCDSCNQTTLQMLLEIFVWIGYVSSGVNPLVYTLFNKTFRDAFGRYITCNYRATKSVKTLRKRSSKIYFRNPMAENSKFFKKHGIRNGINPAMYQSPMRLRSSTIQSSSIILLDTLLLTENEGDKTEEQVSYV
# From the text: as §1
# [4] = Clinical Trial 2: phase 1 multiple ascending oral dose TID for 7 days, PK; format: in vivo, human; details: for accumulation ratio as measured by AUCtau: 60 and 80 mg Compound 1 oral TID, after 7 days; for metabolite exposures with increasing Compound 1 doses / metabolite to parent ratios with increasing Compound 1 doses: oral TID for 7 days
# Method: A phase 1, randomized, double-blind, placebo-controlled, multiple-ascending dose-escalation study was conducted to assess the safety, tolerability, PD, and steady state PK of the HCl salt of Compound 1 from 5 to 80 mg (adjusted free-base concentration) administered orally TID for 7 days in a total of 50 healthy subjects.
# [5] = Clinical Trial 1: phase 1 single oral dose escalation, PK; format: in vivo, human; details: healthy subjects; for half-life compared with the parent compound: single oral dose of Compound 1 HCl
# Method: (§2) A phase 1, randomized, double-blind, placebo-controlled, single-dose escalation study was conducted to assess the tolerability, PK, and PD of the HCl salt of Compound 1 at doses of 1 to 320 mg (adjusted free-base concentration) administered orally as a single dose to a total of 91 healthy subjects.
# [6] = Clinical Trial 3: safety and tolerability of single IV doses; format: in vivo, human
# Method: (§3) A phase 1, randomized, blinded, sponsor-open, placebo-controlled, single ascending dose (SAD) study was conducted to assess the safety, tolerability, PK, and PD of single IV doses of Compound 1 and two active metabolites (M1 and M2) in healthy adult subjects. Five dose cohorts (each cohort composed of six Compound 1 subjects and two placebo subjects) were evaluated.
# (§4) Subjects received a single dose of Compound 1 or placebo. Each cohort included a sentinel group of two subjects (one active and one placebo) dosed at least 24 hours before the remaining six subjects (five active and one placebo). The remaining subjects were dosed following review of all available safety and tolerability data from the sentinel subjects. Safety, tolerability, and PK data were reviewed after the completion of each dose cohort and prior to escalation to the next dose cohort. PD data were reviewed prior to dosing subsequent cohorts. Selection of dose for subsequent cohorts was based on the data from previous cohort(s). Following administration of Compound 1 or placebo, subjects were confined for 72 hours to monitor safety and to collect PK/PD samples. Cardiodynamic electrocardiogram (ECG) sampling were collected pre-dose and through 24 hours post-dose in each cohort. The clinic contacted subjects on Day 11 (1 day) to determine if any adverse event (AE) occurred since discharge.
# (§5) IV doses of placebo […], 1 mg Compound 1 (n=6), 5 mg Compound 1 (n=6), 10 mg Compound 1 (n=5), 20 mg Compound 1 (n=6), 30 mg Compound 1 (n=6), or 40 mg Compound 1 (n=6) were administered. The doses of 1 mg, 5 mg, 10 mg, and 20 mg of Compound 1 were administered by slow bolus infusion over a period of two minutes, while the doses of 30 mg and 40 mg of Compound 1 were administered over a period of five minutes. The PD effects of the single doses were examined immediately after dosing and 4 hours after dosing.
# [7] = tested on: serotonin-mediated amplification of platelet aggregation; assay: serotonin-mediated amplification of platelet aggregation; format: cell-based
# From the text: as §1
# [8] = Clinical Trial 3: phase 1 single ascending IV dose, PK; format: in vivo, human
# Method: as §3, §4, §5
# [9] = tested on: thrombin receptor activating peptide (TRAP)-induced platelet aggregation; assay: Clinical Trial 1: PD, TRAP-induced platelet aggregation; format: in vivo, human; details: single oral dose versus placebo, healthy subjects
# Method: as §2
# (§6) PD assessment consisted of measuring pre- and post-dose platelet aggregation using an in vitro assay with ADP with and without 5-HT. The degree of thrombin receptor activating peptide (TRAP)-induced platelet aggregation inhibition between groups was similar. However, Compound 1 inhibited 5-HT-mediated amplification of platelet aggregation at doses above 1 mg.
# [10] = tested on: 5-HT-mediated amplification of platelet aggregation; assay: Clinical Trial 3: PD, 5-HT-mediated amplification of platelet aggregation; format: in vivo, human; details: single IV doses of 20 mg and greater
# Method: as §3
# as §4, with “discharge. […]” for “discharge.”
# [11] = tested on: 5-HT-mediated amplification of platelet aggregation; assay: Clinical Trial 1: PD, platelet aggregation with ADP with and without 5-HT; format: in vivo, human; details: single oral doses above 1 mg, healthy subjects
# Method: as §2, §6
# [12] = tested on: serotonin-mediated vasoconstriction; assay: serotonin-mediated vasoconstriction
# From the text: as §1
# [13] = all doses, Day 1 versus Day 7, oral TID for 7 days
SMILES,affinity for 5-HT2C receptors [1],affinity for human 5-HT2A [2],affinity for 5-HT2B receptors [3],accumulation ratio as measured by AUCtau [4],metabolite exposures with increasing Compound 1 doses [4],metabolite to parent ratios with increasing Compound 1 doses [4],metabolite-to-parent ratios as the dose was escalated ([5]; single oral dose 1 to 320 mg),half-life compared with the parent compound [5],also measured
"COc1cccc(C(=O)Nc2ccc(OCCN)c(-c3ccnn3C)c2)c1 [Compound M2, N-(4-(2-aminoethoxy)-3-(1-methyl-1H-pyrazol-5-yl)phenyl)-3-methoxybenzamide]",no appreciable affinity,high affinity,no appreciable affinity,approximately 2,increased,decreased,decreased,longer half-lives than the parent compound,–
"COc1cccc(C(=O)Nc2ccc(OCCN3CCOCC3)c(-c3ccnn3C)c2)c1 [Compound 1, 3-methoxy-N-[3-(2-methylpyrazol-3-yl)-4-(2-morpholin-4-ylethoxy)phenyl]benzamide]",no appreciable affinity,high affinity,no appreciable affinity,–,–,–,–,–,"epistaxis, subjects affected ([6]; Compound 1 group, single IV dose): one subject; bleeding-related TEAEs, Bleeding Academic Research Consortium (BARC) Type ([6]; single IV doses): ≤ 1; discontinuation of treatment ([6]; single IV doses 1 to 40 mg): No subjects discontinued treatment; serotonin-mediated amplification of platelet aggregation [7]: inhibits; Cmax ([8]; human, plasma, 40 mg single IV dose, healthy adult subjects, read-out: mean observed Cmax): 1840 ng/mL; half-life ([8]; human, plasma, single IV doses 1 to 40 mg, healthy adult subjects, read-out: mean terminal elimination half-life): 1 to 2 h; dose dependence of mean terminal elimination half-life ([8]; single IV doses 1 to 40 mg): dose-dependent; degree of TRAP-induced platelet aggregation inhibition between groups [9]: similar; inhibition of 5-HT-mediated amplification of platelet aggregation [10]: Near-maximal inhibition; 5-HT-mediated amplification of platelet aggregation [11]: inhibited; AUC accumulation ratio [4, 13]: less than 2; Cmax accumulation ratio [4, 13]: less than 2; absorption ([4]; oral 5 to 80 mg TID for 7 days, healthy subjects): rapidly absorbed at all doses; exposure as measured by AUC versus dose ([4]; oral TID, 5 and 10 mg): dose proportional; exposure as measured by AUC versus dose ([4]; oral TID, 40, 60, and 80 mg, Day 1 and Day 7): greater than dose proportional; serotonin-mediated vasoconstriction [12]: inhibits; absorption ([5]; single oral dose 1 to 320 mg): rapidly absorbed at all doses; half-life as the dose was escalated ([5]; single oral dose 1 to 320 mg): half-life increased; plasma exposure measures versus dose ([5]; single oral dose 1 to 320 mg): increased in a greater than dose proportional manner"
"COc1cccc(C(=O)Nc2ccc(OCCNCCO)c(-c3ccnn3C)c2)c1 [Compound M1, N-(4-(2-(2-hydroxyethylamino)ethoxy)-3-(1-methyl-1H-pyrazol-5-yl)phenyl)-3-methoxybenzamide]",no appreciable affinity,high affinity,no appreciable affinity,approximately 2,increased,decreased,decreased,longer half-lives than the parent compound,–

# — US20240058350A1, “Methods of Treatment” (Arena Pharmaceuticals, Inc., priority 2020, published 2024)
